Blank lines part the entries; values can stand above or below the compound they belong to. Where a SMILES comes first, the peptide text is derived from it. Bridges are numbered along the chain shown (N, C = ends). [ ]: non-standard residue; d: D form. 2Nal = N[C@@H](Cc1ccc2ccccc2c1)C(=O)O; Lys(iPr) = CC(C)NCCCC[C@H](N)C(=O)O
Experiments:
[1] = system: pancreatic cancer model; conditions: added to anti-PD-L1 monoclonal antibody regimen; cited from earlier work
[2] = system: cancer xenograft models; conditions: cell lines that express high levels of CXCR4; cited from earlier work
[3] = clinical; conditions: human, in vivo, sc, t1/2
Method: (§1) Blood samples were drawn from all patients for the assessment of LY2510924 in plasma and durvalumab concentrations in serum at prespecified time points. The PK of LY2510924 was assessed through intensive sampling, and the PK parameter estimates were calculated by standard noncompartmental methods of analysis. PK data for durvalumab were summarized by sampling time points, and a formal noncompartmental analysis was not conducted. Samples were analyzed using a validated liquid chromatography with tandem mass spectrometry. Summary statistics was tabulated for the PK parameters of LY2510924 and durvalumab by dose and study day.

[4] = LY2510924 pharmacokinetics in plasma, noncompartmental analysis; conditions: for AUC(0-inf) / Cmax: n = 3, geometric mean (CV%)
Method: as §1

[5] = system: syngeneic squamous cell carcinoma model; conditions: single agent or combination; no reference printed for the sentence; cited from earlier work
[6] = system: patients; design: method as in PMID 24727324; conditions: 30 mg/day SC, monotherapy; cited from earlier work
[7] = Durvalumab serum concentrations by sampling time point; format: in vivo, human
Method: as §1

[8] = human, plasma, sc, Day 15, 20 mg/day SC
[9] = human, plasma, sc, Day 15, 30 mg/day SC

Compound: c1cc(CN2CCCNCCNCCCNCC2)ccc1CN1CCCNCCNCCCNCC1 [AMD3100]
effect on T cells and antitumor efficacy of anti-PD-L1 monoclonal antibody [1]: T cell redistribution and rapid accumulation near tumors, enhancing the antitumor efficacy

half-life [3]: 5.11 h
PK variability on AUC ([4]; 20, 30 and 40 mg daily SC): 69%
PK variability on Cmax ([4]; 20, 30 and 40 mg daily SC): ~60%
mean apparent volume of distribution ([4]; 20, 30 and 40 mg daily SC, all nine patients): 59 L
CL/F ([4]; human, plasma, sc, 40 mg, mean apparent clearance, 20, 30 and 40 mg daily SC, all nine patients): 117 mL/min
AUC(0-inf) [4, 8]: 1960 ng·h/mL
AUC(0-inf) [4, 9]: 4320 ng·h/mL
Cmax ([4]; human, plasma, sc, Day 1, 20 mg/day SC, with durvalumab): 747 ng/mL
Cmax ([4]; human, plasma, sc, Day 1, 30 mg/day SC, with durvalumab): 682 ng/mL
Cmax ([4]; human, plasma, sc, Day 1, 40 mg/day SC, with durvalumab): 1860 ng/mL
Cmax [4, 8]: 367 ng/mL
Cmax [4, 9]: 847 ng/mL
Cmax ([4]; human, plasma, sc, Day 15, 40 mg/day SC): 1680 ng/mL
Compound: CC(C)NCCCC[C@H](NC(=O)[C@H]1CCC(=O)N[C@@H](Cc2ccccc2)C(=O)N[C@@H](Cc2ccc(O)cc2)C(=O)N[C@@H](CCCCNC(C)C)C(=O)N[C@H](CCCNC(=N)N)C(=O)N[C@@H](Cc2ccc3ccccc3c2)C(=O)NCC(=O)N1)C(N)=O [LY2510924] (FY[Lys(iPr)][dR][2Nal]G[dE][Lys(iPr)]-NH2; lactam N-7)
tumor growth and metastasis [2]: dose-dependent inhibition
antitumor activity [5]: minimal activity
patients with dose-limiting toxicity (grade 3 increase in ANC >25,000 cells/μL for >5 days) [6]: two

Compound: durvalumab: selective, high-affinity, human immunoglobulin G1 monoclonal antibody that blocks PD-L1 binding to PD-1 and CD80
peak concentration, geometric mean ([7]; week 0, 1500 mg Q4W IV infusion over 60 min, n = 8, %CV 33.2%): 418 µg/mL
trough concentration, geometric mean ([7]; week 4, 1500 mg Q4W IV, n = 8, %CV 50.3%): 106 µg/mL
trough concentration, geometric mean ([7]; week 8, 1500 mg Q4W IV, n = 4, %CV 58.4%): 133 µg/mL
peak concentration, geometric mean ([7]; week 12, 1500 mg Q4W IV, n = 4, %CV 30.8%): 549 µg/mL
trough concentration, geometric mean ([7]; week 12, 1500 mg Q4W IV, n = 4, %CV 46.8%): 126 µg/mL
trough concentration, geometric mean ([7]; week 20, 1500 mg Q4W IV, n = 1): 74.9 µg/mL

Reference: PMC7097682, “Safety and Pharmacokinetics of CXCR4 Peptide Antagonist, LY2510924, in Combination with Durvalumab in Advanced Refractory Solid Tumors” (Journal of Pancreatic Cancer, 2020)
